Measured values as given in patent publication US7101878B1 (Agouron Pharmaceuticals, Inc., priority 1998, dated 2006).
Like-named read-outs stand apart in the source and are kept apart here.

What was measured:
[1] = molecular target: T1, rat GnRH receptor (Rattus norvegicus, UniProt P30969); experiment: Radioligand binding, 125I-GnRH-A, rat pituitary membranes; set-up: membranes were prepared from rat pituitary; from tissue; host or cells: rat pituitary
T1 sequence (P30969 1-327): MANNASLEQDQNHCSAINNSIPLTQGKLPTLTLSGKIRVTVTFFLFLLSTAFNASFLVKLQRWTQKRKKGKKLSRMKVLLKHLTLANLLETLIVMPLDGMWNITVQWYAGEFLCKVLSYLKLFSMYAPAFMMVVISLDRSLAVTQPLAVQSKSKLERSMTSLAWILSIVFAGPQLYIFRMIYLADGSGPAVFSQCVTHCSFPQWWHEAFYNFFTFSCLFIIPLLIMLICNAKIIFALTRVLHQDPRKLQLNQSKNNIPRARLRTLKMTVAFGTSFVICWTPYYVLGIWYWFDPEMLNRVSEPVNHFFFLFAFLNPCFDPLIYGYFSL
Procedure, shortened: (§1)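 Bound label captured on 0.1% polyethyleneimine-treated GF/C filters, washed three times with PBS, counted. IC50 derived; identical set-up for every species.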

[2] = molecular target: T2, human GnRH receptor (Homo sapiens, UniProt P30968); experiment: Radioligand binding, 125I-GnRH-A displacement, membranes of HEK 293 cells with human GnRH receptor
T2 construct: expressed in transfected cells; host or cells: HEK 293 (hGnRH-R/293, from Dr. Stuart Sealfon)
T2 sequence (P30968 1-328): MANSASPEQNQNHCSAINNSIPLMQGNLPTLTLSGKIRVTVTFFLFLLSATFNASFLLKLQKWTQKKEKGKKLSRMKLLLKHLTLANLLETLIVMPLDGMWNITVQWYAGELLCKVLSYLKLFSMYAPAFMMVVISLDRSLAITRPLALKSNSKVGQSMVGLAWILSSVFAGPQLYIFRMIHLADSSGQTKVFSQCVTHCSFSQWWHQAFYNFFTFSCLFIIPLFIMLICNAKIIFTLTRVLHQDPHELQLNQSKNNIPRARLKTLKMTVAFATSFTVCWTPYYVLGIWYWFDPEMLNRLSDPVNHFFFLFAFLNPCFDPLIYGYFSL
Procedure, shortened: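 Bound tracer was separated by filtration through polyethyleneimine-soaked GF/C filters and counted by liquid scintillation. IC50 from curve fitting; other species were tested under the same conditions.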

[3] = molecular target: T3, bovine GnRH receptor (Bos taurus, UniProt P32236); experiment: Radioligand binding, 125I-GnRH-A, bovine pituitary membranes
T3 construct: membranes were prepared from bovine pituitary; from tissue; host or cells: bovine pituitary
T3 sequence (P32236 1-328): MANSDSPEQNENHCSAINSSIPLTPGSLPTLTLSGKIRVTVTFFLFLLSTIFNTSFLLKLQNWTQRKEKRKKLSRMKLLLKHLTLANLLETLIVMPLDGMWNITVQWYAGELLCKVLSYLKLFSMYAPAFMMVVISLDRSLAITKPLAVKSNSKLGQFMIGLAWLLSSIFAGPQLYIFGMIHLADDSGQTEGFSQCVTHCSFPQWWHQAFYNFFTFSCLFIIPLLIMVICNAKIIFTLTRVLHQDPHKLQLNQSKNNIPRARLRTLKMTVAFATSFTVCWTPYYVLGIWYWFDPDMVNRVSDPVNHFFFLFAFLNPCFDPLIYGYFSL
Protocol: All compounds were diluted in 1% DMSO (final assay concentration) in binding assay buffer. […] Reactions were terminated by rapid filtration onto 96-well Packard GF/C filters soaked in 0.1% polyethyleneimine. Filters were washed three times with PBS buffer, dried and counted on a Packard Topcount by liquid scintillation counting.
Assay conditions were identical for assessing compound activities at other species. […] IC50 values for control peptides and test compounds were calculated utilizing GraphPad Prism™ software.
The reaction mixture was vortexed and incubated for 1 min at room temperature. After one min, the mixture was vortexed and allowed to incubate for an additional minute. 2 ml of 0.5 M acetic acid/1% BSA was added to the reaction tube and the mixture was added to a C18 Sep-Pak cartridge. The cartridge was washed with subsequent washes of 5 ml H2O and 5 ml 0.5M acetic acid and then eluted with 5×1 ml of 60% CH3CN/40% 0.5M acetic acid. The eluate was diluted with 3× volume of HPLC buffer A (0.1% TFA in H2O) and loaded onto a C18 column. […] The radioactive fractions (750 ed/fraction) are collected into clean polypropylene tubes containing 100 μl of 10% BSA. Fractions were assessed for biological activity by radioligand binding.

[4] = molecular target: T4, mouse GnRH receptor (Mus musculus, UniProt Q01776); experiment: Radioligand binding, 125I-GnRH-A, 293 cells expressing mouse GnRH receptors
T4 construct: expressed in transfected cells; host or cells: 293 cells
T4 sequence (Q01776 1-327): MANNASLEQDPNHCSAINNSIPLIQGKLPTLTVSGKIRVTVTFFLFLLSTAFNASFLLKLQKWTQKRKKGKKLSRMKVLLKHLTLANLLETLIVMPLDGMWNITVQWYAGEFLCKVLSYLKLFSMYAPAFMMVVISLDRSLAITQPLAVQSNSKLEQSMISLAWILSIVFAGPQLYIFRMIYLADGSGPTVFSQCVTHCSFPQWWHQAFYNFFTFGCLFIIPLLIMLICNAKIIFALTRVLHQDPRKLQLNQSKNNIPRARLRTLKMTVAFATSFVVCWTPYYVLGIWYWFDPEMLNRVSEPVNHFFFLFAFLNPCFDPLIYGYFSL
Procedure, shortened: as §1

[5] = Metabolism rate, pmol/min/mg at 1 μM, rat male; format: in vitro ADME; details: 1 μM compound
[6] = Metabolism rate, pmol/min/mg at 1 μM, human; format: in vitro ADME; details: 1 μM compound
[7] = Pharmacokinetic studies / bioavailability in rats; format: in vivo, rat; details: male, rat, plasma, 10 mg/kg, rat male; for half-life: iv
[8] = means ± SE of at least three experiments performed in duplicate, read-out: Rat IC50
[9] = means ± SE of at least three experiments performed in duplicate, read-out: Human IC50
[10] = means ± SE of at least three experiments performed in duplicate, read-out: Bovine IC50
[11] = means ± SE of at least three experiments performed in duplicate, read-out: Mouse IC50
[12] = second value marked * (mostly in parentheses), asterisk not explained, read-out: hGnRH IC50, value marked *
[13] = po, p.o. 10 mg/kg, vehicle per footnote

Compound | IC50 [1, 8] [nM] | IC50 [2, 9] [nM] | IC50 ([2]; read-out: hGnRH IC50) [nM] | IC50 [3, 10] [nM] | IC50 [4, 11] [nM] | Rat male pmol/min/mg 1 μM [5] [pmol/min/mg] | Human pmol/min/mg 1 μM [6] [pmol/min/mg] | IC50 ([1]; read-out: rGnRH IC50) [nM] | IC50 ([3]; read-out: bGnRH IC50) [nM] | IC50 ([4]; read-out: mGnRH IC50) [nM] | half-life [7] [min] | IC50 [2, 12] [nM] | Cmax [7, 13] [nM] | Tmax [7, 13] [min]
COc1cccc(CNC(=O)c2ccc(Cc3cc4c(cc3C)C(C)(C)CCC4(C)C)o2)c1OC [Compound 15] | 70 ± 16 | 100 ± 17 | 290 | 1000 ± 240 | 220 ± 50 |  |  |  |  |  |  |  |  | 
Cc1cccc(CNC(=O)c2ccc(Cc3cc4c(cc3C)C(C)(C)CCC4(C)C)o2)c1 [Compound 41] |  |  | 140 |  |  | 1606 | 185 | 210 | 1400 | 490 |  |  |  | 
Cc1cc2c(cc1Cc1ccc(C(=O)NCC3CCCC(CNC(=N)N)C3)o1)C(C)(C)CCC2(C)C (stereo not drawn) [Compound 22] |  |  | 540 |  |  |  |  | 310 | 1710 | 1100 |  |  |  | 
Cc1cc2c(cc1Cc1ccc(C(=O)NCc3cccc(F)c3)o1)C(C)(C)CCC2(C)C [Compound 53] |  |  | 250 |  |  |  |  | 270 | 2930 | 630 |  |  |  | 
Cc1cc2c(cc1Cc1ccc(C(=O)NCc3ccccc3Cl)o1)C(C)(C)CCC2(C)C [Compound 51] |  |  | 150 |  |  | 1877 | 392 | 120 | 1930 | 400 |  |  |  | 
Cc1cc2c(cc1Cc1ccc(C(=O)NCC3CCC(C#N)CC3)o1)C(C)(C)CCC2(C)C (stereo not drawn) [Compound 16] | 560 ± 50 | 30 ± 6 | 30 | 4380 ± 510 | 1290 ± 210 |  |  | 560 |  | 1290 | 40 |  |  | 
Cc1cc2c(cc1Cc1ccc(C(=O)Nc3cccc4ncccc34)o1)C(C)(C)CCC2(C)C [Compound 64] |  |  | 125 |  |  |  |  | 60 | 380 | 34 |  |  |  | 
COc1ccc(CNC(=O)c2ccc(Cc3cc4c(cc3C)C(C)(C)CCC4(C)C)o2)c(OC)c1 [Compound 56] |  |  | 100 |  |  | 3412 | 392 | 70 | 1000 | 220 | 156 |  |  | 
CC(=O)c1cccc(NC(=O)c2ccc(Cc3cc4c(cc3C)C(C)(C)CCC4(C)C)o2)c1 [Compound 19] |  | 50 ± 3 | 50 |  |  |  |  | 60 | 605 | 160 | 43 |  |  | 
Cc1cc2c(cc1Cc1ccc(C(=O)NCc3ccccc3F)o1)C(C)(C)CCC2(C)C [Compound 46] |  |  |  |  |  | 1781 | 485 | 900 | 8700 | 1880 | 55 | 330 |  | 
Cc1cc2c(cc1Cc1ccc(C(=O)NCc3cccs3)o1)C(C)(C)CCC2(C)C [Compound 44] |  |  | 390 |  |  | 1759 | 459 | 510 | 4440 | 610 | 55 | 120 |  | 
Cc1ccccc1CNC(=O)c1ccc(Cc2cc3c(cc2C)C(C)(C)CCC3(C)C)o1 [Compound 50] |  |  | 230 |  |  |  |  | 150 | 1520 | 370 |  |  |  | 
Cc1cc2c(cc1Cc1ccc(C(=O)NCc3cccc(CNC(=N)N)c3)o1)C(C)(C)CCC2(C)C [Compound 24] |  |  | 550 |  |  |  |  | 150 | 760 | 560 |  |  |  | 
Cc1ccc(CNC(=O)c2ccc(Cc3cc4c(cc3C)C(C)(C)CCC4(C)C)o2)cc1 [Compound 14] | 60 ± 15 | 80 ± 4 | 80 | 1050 ± 30 | 290 ± 70 |  |  | 60 |  | 290 | 84 |  | 1600 | 60
Cc1cc2c(cc1Cc1ccc(C(=O)NCc3cccc(C)c3C)o1)C(C)(C)CCC2(C)C [Compound 17] | 30 ± 4 | 80 ± 20 | 80 | 670 ± 120 | 80 ± 20 |  |  | 30 |  | 80 | 132 |  |  | 
Cc1cc2c(cc1Cc1ccc(C(=O)NCc3cccc(Cl)c3)o1)C(C)(C)CCC2(C)C [Compound 39] |  |  | 190 |  |  |  |  | 220 | 2340 | 830 |  |  |  | 
CCNC(=O)[C@@H]1CCCN1C(=O)[C@H](CCCNC(=N)N)NC(=O)[C@H](CC(C)C)NC(=O)[C@@H](C)NC(=O)[C@H](Cc1ccc(O)cc1)NC(=O)[C@H](CO)NC(=O)[C@H](Cc1c[nH]c2ccccc12)NC(=O)[C@H](Cc1c[nH]cn1)NC(=O)[C@@H]1CCC(=O)N1 [GnRH-A, [des-Gly^10,D-Ala^6]GnRH ethylamide, reference compound] | 0.49 ± 0.1 | 0.34 ± 0.06 |  | 0.3 ± 0.05 | 0.22 ± 0.03 |  |  |  |  |  |  |  |  | 
Cc1ccc(CNC(=O)c2ccc(Cc3cc4c(cc3C)C(C)(C)CCC4(C)C)o2)cc1C [Compound 18] | 40 ± 3 | 55 ± 11 | 55 | 460 ± 90 | 115 ± 25 |  |  | 40 |  | 115 | 55 |  |  | 
Cc1cc2c(cc1Cc1ccc(C(=O)NCc3ccc(F)cc3F)o1)C(C)(C)CCC2(C)C [Compound 52] |  |  | 280 |  |  |  |  | 270 | 2900 | 660 |  |  |  | 
COC(=O)c1ccc(OC)c(NC(=O)c2ccc(Cc3cc4c(cc3C)C(C)(C)CCC4(C)C)o2)c1 [Compound 72] |  |  | 130 |  |  | 4226 | 278 | 84 | 1440 | 85 |  |  |  | 
Cc1cc2c(cc1Cc1ccc(C(=O)NCc3ccc(CNC(=N)N)cc3)o1)C(C)(C)CCC2(C)C [Compound 25] |  |  | 410 |  |  |  |  | 260 | 940 | 950 |  |  |  | 
Cc1cc2c(cc1Cc1ccc(C(=O)NCc3cccnc3)o1)C(C)(C)CCC2(C)C [Compound 43] |  |  | 320 |  |  |  |  | 330 | 4000 | 630 |  | 130 |  | 
